Data set [1] in a line: Octanol-water distribution coefficient, log D of the compound at pH 6.5. Type of data set: physicochemical.
Data set [2] can be described thus: Octanol-water distribution coefficient, log D of the compound at pH 7.4 at 100 ug/mL. It counts as physicochemical.
Data set [3] deals with Plasma. Kind of data set: Stability in Sprague-Dawley rat plasma at 1 mM incubated for 24 hrs at 37 degC by MALDI-TOF mass spectrometry. Type of data set: ADME, cell-free. Conditions: 1000 µM.
The test system of data set [4] is Plasma. As to the kind of experiment: Stability in Sprague-Dawley rat plasma at 1 mM incubated for 24 hrs at 37 degC by LC-QTOF mass spectrometry. Type of data set: ADME, cell-free. Conditions: 1000 µM.

On to `CCCCCCCOC(=O)C1=C[C@H](NC(=N)N)[C@@H](NC(C)=O)[C@H]([C@H](O)[C@H](O)CO)O1` [ZANAMIVIR HEPTYL ESTER], for which the logD in data set [1] is -1.31.
With `CCC(CC)O[C@@H]1C=C(C(=O)OCCCOC(=O)c2ccc3ccccc3c2O)C[C@H](NC(=N)N)[C@H]1NC(C)=O`, the logD in data set [2] (read-out: logD) was found to be 0.82.
`CCC(CC)O[C@@H]1C=C(C(=O)O)C[C@H](NC(=N)N)[C@H]1NC(C)=O`: the logD in data set [2] is listed as -0.13.
As to `CC(=O)N[C@H]1[C@H]([C@H](O)[C@H](O)CO)OC(C(=O)OCCCOC(=O)c2ccc3ccccc3c2O)=C[C@@H]1NC(=N)N`, the Stability entry with Plasma [3] and in the data set with Plasma [4] was “Stable” each time. Also, the logD in data set [2] (read-out: logD) worked out at 0.75.
Consider `CCOC(=O)C1=C[C@@H](OC(CC)CC)[C@H](NC(C)=O)[C@@H](NC(=N)N)C1`, for which the logD in data set [1] is -1.17; in data set [2] (read-out: logD), 0.31.
As for `CC(=O)N[C@H]1[C@H]([C@H](O)[C@H](O)CO)OC(C(=O)O)=C[C@@H]1N=C(N)N` [ZANAMIVIR], the logD in data set [2] (read-out: logD) was -1.
`O=C(O)c1ccc2ccccc2c1O` [CARBOXYNAPHTHOL]: the logD is 0.25 in data set [1] and 0.16 in data set [2] (read-out: logD).
For `CCC(CC)O[C@@H]1C=C(C(=O)O)C[C@H](N)[C@H]1NC(C)=O` [OSELTAMIVIR CARBOXYLATE], the logD in data set [2] (read-out: logD) was -1.5.
Still for that read-out and setting: with `CCOC(=O)C1=C[C@H](NC(=N)N)[C@@H](NC(C)=O)[C@H]([C@H](O)[C@H](O)CO)O1` the figure was -0.28.

For orientation: logD means the decadic logarithm of the distribution of all forms, ionised or not, between an organic phase and buffer at a given pH.

The values are drawn from ChEMBL document CHEMBL1811835, “Intramolecular ion-pair prodrugs of zanamivir and guanidino-oseltamivir” (Bioorg Med Chem, 2011).
